Measured values as given in publication PMC4842970, “Bioactivity Focus of α-Cyano-4-hydroxycinnamic acid (CHCA) Leads to Effective Multifunctional Aldose Reductase Inhibitors” (Scientific Reports, 2016).
Like-named read-outs stand apart in the source and are kept apart here.

Key:
human ALR2 = target: T1, human ALR2 (Homo sapiens, UniProt P15121); experiment: ALR2 inhibition (in vitro reduction of D,L-glyceraldehyde); format: biochemical
T1 construct: purchased WAKO Pure Chemical Industries, Ltd. (Japan); host or cells: baculovirus-insect cell expression system
Description: Human ALR2 was purchased from WAKO Pure Chemical Industries, Ltd. (Japan), which was purified from the culture medium of baculovirus-insect cell expression system. […] ALR2 inhibition was determined spectrophotometrically according to the procedure described previously.

[1] = ORACFL radical absorbance capacity assay
Excerpt: With the CHCA scaffold, we hypothesized that 5a–j should have antioxidant activity. Therefore, a radical absorbance capacity assay (ORACFL)[41] was employed to assess their capacities. This method is based on the inhibition of peroxyl-radical-induced oxidation initiated by thermal decomposition of azo-compounds, in this case 2,2′-azo-bis (2-amidinopropane) dihydrochloride (AAPH). Trolox (6-hydroxy-2,5,7,8-tetramethylchroman-2-carboxylic acid) was used as a standard reference. Data is expressed as micromoles of Trolox equivalents (TE) per […] of sample (μmol TE/ml or U/ml).
Antioxidant capacity was determined according to the procedure described previously.

chick embryo = experiment: Chick embryo model of hyperglycemia: mortality, NTD rate, body weight; format: in vivo; conditions: glucose 0.4 mmol/egg
Description: In order to evaluate further the potential of 5f as an agent to treat diseases caused by high glucose inside the system, a chick embryo model of treatment with high glucose was set up.
Fertilized leghorn eggs were purchased from the Avian Farm of the South China Agriculture University (Guangzhou, China). Before the injection of glucose (Sigma–Aldrich, MO, USA), the eggs were incubated in a humidified incubator (Grumbach, Germany) at 37 °C with 60% humidity until the embryos reached the desired stage. […] Glucose was dissolved in 200 μL chicken saline and injected on EDD 1. Mortality, abnormality and body weight measurements were made on EDD 5. Embryos were removed from their eggs and weighed. The percent mortality was measured by counting the number of dead versus all embryos. The rate of NTD of the embryos was assessed by the number of NTD versus survival embryos.

ALR2 = experiment: AR (ALR2) activity in glucose-treated embryos (chicken AR ELISA kit); format: in vivo; conditions: glucose-treated chick embryos, EDD 5, edaravone group (0.1 nM)
Description: As expected, treatment of 5f decreased ALR2 activity in a dose-dependent manner. […] However, EDA, which is a clinical radical scavenger, was shown no effect on the inhibition of ALR2.
Embryos on EDD 5 were homogenized with chicken saline and centrifuged (4 °C, 10000 rpm, 10 min). The supernatant was used for measuring AR activity in the sample. A chicken AR ELISA kit (Jianglai Biotechnology, China) were used for detection. The concentration of AR in the samples was then determined by comparing the OD of the samples to the standard curve. The sorbitol contents of the chick embryo were determined by a Sorbitol Colorimetric Assay Kit (BioVision, USA). In the assay, sorbitol is oxidized to fructose with the proportional development of intense color with an absorbance maximum at 560 nm.

[2] = system: oxidative stress (ROS, MDA, ORAC); experiment: ROS generation, MDA and ORAC level in chick embryos; format: in vivo; conditions: glucose-treated chick embryos; for ORAC level (anti-oxidative capacity) of embryo: EDD 5
Excerpt: It has been reported that hyperglycemia increased the production of ROS. Blocking the generation of ROS could at least partially prevent the possible damage of hyperglycemia. No doubt, oxidative stress will be induced in glucose treated embryos. This conclusion was confirmed by the determination of ROS and malondialdehyde (MDA) levels, and the anti-oxidation ability in chick embryos on EDD 5. […] However, treatment of 5f decreased both levels of ROS and MDA in a dose-dependent manner.
In addition, the ORAC level is indicative of the anti-oxidative capacity.
ROS generation ratios in the eyes of EDD 5 chick embryos were detected with 5 μmol 2′,7′-dichlorofluorescein-diacetate (DCFH-DA, Sigma-Aldrich). The peroxide content was determined by measuring thiobarbituric-acid-reactive substances (TBARS) with a commercial MDA kit (Nanjing Jiancheng Institute of Biotechnology, Nanjing, China). The procedures for the ORAC assay were modified from the previously described method. The automated ORAC assay was carried out on a decay of the fluorescein signal and determined with an excitation/emission filter pair of 485/527 nm in a GENios Lueifcrase microplate reader (TECAN) at 37 °C. Final results were calculated on the basis of the difference in the area under the fluorescein decay curve between the blank and each sample.

HEK293 cells = experiment: Cytotoxicity, MTT growth inhibition; format: cell-based, human; conditions: 500 μM
Description: In another aspect, the toxicity was evaluated by the growth inhibition of 5f against human embryonic kidney 293 (HEK293) cells. It was shown that 5f was nontoxic to HEK293 cells even at high concentration of 500 μM (Supplementary B of Fig. S2).
HEK293 cells were purchased from Centre of Cells Resource, Shanghai Institute of Life Science, Chinese Academy of Sciences, P. R. China. HEK293 cells in the exponential phase were plated on a 96-well cell culture plate with 5 × 10^3 cells in each well supplemented with 100 U/ml of penicillin and 100 μg/ml of streptomycin, which were cultured in a humidified atmosphere of 95% and 5% CO2 at 37 °C for 24 h. The cells were adherent. […] 6 wells were set for each group. The wells without addition of the drug were set as controls. The cells in each of the wells were cultured for another 24 h. Then 15 μl of MTT (5 mg/mL) was added to each well. The plates were then incubated at 37 °C for 4 hours, then the supernatants were discarded. 150 μL of DMSO solutions were added to each of the wells and the solutions were mixed thoroughly. Then the plates were incubated at 37 °C for another 10 minutes. Each sample was mixed again and the resulting formazan was measured by its absorbance at 570 nm using a BIO-RAD680 plate reader (Thermo, USA). The experiments were repeated at least 3 times and compared with the control experiment. […]

ALR1 = target: T2, ALR1 (Gallus gallus, UniProt Q5ZK84); experiment: ALR1 activity in glucose-treated embryos (chicken ALR1 ELISA kit); format: in vivo; conditions: glucose-treated chick embryos, EDD 5, compared with the model group
T2 construct: Embryos on EDD 5 were homogenized with chicken saline and centrifuged; from tissue; host or cells: EDD 5 chick (leghorn) embryo homogenate supernatant
T2 sequence (Q5ZK84 1-327): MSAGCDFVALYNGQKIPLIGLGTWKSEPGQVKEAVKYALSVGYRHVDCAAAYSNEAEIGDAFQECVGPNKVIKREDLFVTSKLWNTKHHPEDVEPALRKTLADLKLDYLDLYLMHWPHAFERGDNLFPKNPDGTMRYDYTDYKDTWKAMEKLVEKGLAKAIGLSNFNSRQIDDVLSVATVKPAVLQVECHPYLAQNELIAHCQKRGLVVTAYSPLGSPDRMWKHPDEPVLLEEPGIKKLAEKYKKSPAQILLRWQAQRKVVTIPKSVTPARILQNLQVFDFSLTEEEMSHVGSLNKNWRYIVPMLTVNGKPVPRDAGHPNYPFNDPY
Description: Embryos on EDD 5 were homogenized with chicken saline and centrifuged (4 °C, 10000 rpm, 10 min). The supernatant was used for measuring ALR1 activity in the sample. A chicken ALR1 ELISA kit (Jianglai Biotechnology, China) were used for detection. The concentration of ALR1 in the samples was then determined by comparing the OD of the samples to the standard curve.

[3] = human ALR2, D,L-glyceraldehyde as substrate, read-out: IC50 (ALR2 inhibition)

| IC50 (human ALR2; [3]) [nM] | Compound | ORAC ([1]; 3.125 μg/ml) [U/ml] | ORAC ([1]; 6.25 μg/ml) [U/ml] | ORAC ([1]; 12.5 μg/ml) [U/ml] | also measured |
| --- | --- | --- | --- | --- | --- |
| – | N#CC(=Cc1ccc(O)cc1)C(=O)O [CHCA, α-cyano-4-hydroxycinnamic acid] | 52.3 ± 3.1 | 51.2 ± 1.1 | 48.8 ± 1.3 | IC50 (human ALR2): 133 ± 1.8 nM |
| 137 ± 2.9 | CC(=O)N1CCC[C@H]1C(=O)NCCNC(=O)/C(C#N)=C/c1ccc(O)cc1 [Compound 5a, (S,E) - 1 - acetyl -N-(2-(2-cyano-3-(4-hydroxyphenyl)acrylamido)ethyl)pyrroli-dine-2-carboxamide] | 57.0 ± 2.3 | 52.4 ± 2.1 | 49.8 ± 1.7 | – |
| 136 ± 2.4 | CC(=O)N1CCC[C@@H]1C(=O)NCCNC(=O)/C(C#N)=C/c1ccc(O)cc1 [Compound 5b, (R,E) -1-acetyl - N - (2-(2-cyano-3-(4-hydroxyphenyl)acrylamido)ethyl)pyrroli-dine-2-carboxamide] | 47.1 ± 2.4 | 44.1 ± 2.5 | 42.9 ± 3.3 | – |
| 316 ± 6.2 | CC(=O)N[C@@H](COCc1ccccc1)C(=O)NCCNC(=O)/C(C#N)=C/c1ccc(O)cc1 [Compound 5c, (S,E) – N - (2 - (2-acetamido-3-(benzyloxy)propanamido)ethyl)-2-cyano-3-(4-hydroxyphenyl)acrylamide] | 32.4 ± 1.8 | 30.4 ± 1.7 | 26.4 ± 2.9 | melting point: 176 to 178 °C |
| 404 ± 7 | CC(=O)N[C@H](COCc1ccccc1)C(=O)NCCNC(=O)/C(C#N)=C/c1ccc(O)cc1 [Compound 5d, (R,E) – N - (2 - (2-acetamido-3-(benzyloxy)propanamido)ethyl)-2-cyano-3-(4-hydroxyphenyl)acrylamide] | 38.3 ± 1.9 | 35.4 ± 3.2 | 33.3 ± 4.1 | melting point: 175 to 177 °C |
| 99.8 ± 2 | CC(=O)N[C@@H](COCc1ccccc1)C(=O)NCCCNC(=O)/C(C#N)=C/c1ccc(O)cc1 [Compound 5e, (S,E) – N - (3-(2-acetamido-3-(benzyloxy)propanamido)propyl)-2-cyano-3-(4-hydroxyphenyl)acrylamide] | 65.7 ± 2.7 | 62.6 ± 1.5 | 60.4 ± 2.2 | – |
| 273 ± 4.6 | CC(C)(C)C(=O)N[C@@H](COCc1ccccc1)C(=O)NCCNC(=O)/C(C#N)=C/c1ccc(O)cc1 [Compound 5g, (S,E) - N - (2-(2-pivalamido-3-(benzyloxy)propanamido)ethyl)-2-cyano-3-(4-hydroxyphenyl)acrylamide] | 38.3 ± 2.6 | 33.9 ± 1.4 | 30.4 ± 3.7 | – |
| 252 ± 4.6 | CC(C)(C)C(=O)N[C@H](COCc1ccccc1)C(=O)NCCNC(=O)/C(C#N)=C/c1ccc(O)cc1 [Compound 5h, (R,E) - N - (2-(2-pivalamido-3-(benzyloxy)propanamido)ethyl)-2-cyano-3-(4-hydroxyphenyl)acrylamide] | 50.3 ± 3.2 | 45.2 ± 1.3 | 42.8 ± 1.1 | – |
| 221 ± 3.9 | CC(C)(C)C(=O)N[C@@H](COCc1ccccc1)C(=O)NCCCNC(=O)/C(C#N)=C/c1ccc(O)cc1 [Compound 5i, (S,E) - N - (3-(2-pivalamido-3-(benzyloxy)propanamido)propyl)-2-cyano-3-(4-hydroxyphenyl)acrylamide] | 36.4 ± 3.5 | 35.6 ± 3.9 | 35.3 ± 2.1 | – |
| 247 ± 4.5 | CC(C)(C)C(=O)N[C@H](COCc1ccccc1)C(=O)NCCCNC(=O)/C(C#N)=C/c1ccc(O)cc1 [Compound 5j, (R,E) - N - (3-(2-pivalamido-3-(benzyloxy)propanamido)propyl)-2-cyano-3-(4-hydroxyphenyl)acrylamide] | 38.6 ± 1.9 | 35.3 ± 1.7 | 30.6 ± 2.2 | – |
| – | CC1=NN(c2ccccc2)C(=O)C1 [Edaravone, reference compound] | – | – | – | Body weight (chick embryo; EDD 5, dose 0.1 nM): 310.8 ± 11.6 mg; Death (/n) (chick embryo; EDD 5, dose 0.1 nM): 20.0%; NTD (/survival) (chick embryo; EDD 5, dose 0.1 nM): 18.8%; ALR2 activity in embryo (ALR2): no effect; ORAC level (anti-oxidative capacity) of embryo [2]: recovered |
| – | CC(/C=C1\SC(=S)N(CC(=O)O)C1=O)=C\c1ccccc1 [Epalrestat, epalrestat, reference compound] | – | – | – | inhibition rate (growth inhibition) (HEK293 cells): 36.4%; Body weight (chick embryo; EDD 5, dose 1 μM): 300.1 ± 3.6 mg; Death (/n) (chick embryo; EDD 5, dose 1 μM): 25.0%; NTD (/survival) (chick embryo; EDD 5, dose 1 μM): 26.7%; ALR1 level in embryo (ALR1): no obvious change; ORAC level (anti-oxidative capacity) of embryo [2]: no effect; MDA level in embryo ([2]; EDD 5, dose 1 μM): no effect; ROS level in embryo ([2]; EDD 5, dose 1 μM): no effect |
| 138 ± 2.2 | O=c1c2cc(O)c(O)cc2oc2cc(O)c([C@@H]3O[C@H](CO)[C@@H](O)[C@H](O)[C@H]3O)c(O)c12 [Mangiferin, reference compound] | 75.3 ± 0.4 | 74.8 ± 0.8 | 73.2 ± 7.2 | – |
| – | Cc1c(C)c2c(c(C)c1O)CCC(C)(C(=O)O)O2 (centres unmarked) [Trolox, 6-hydroxy-2,5,7,8-tetramethylchroman-2-carboxylic acid, reference compound] | 95.3 ± 3.7 | 92.8 ± 2.7 | 85.2 ± 4.3 | – |
